The test system of data set [1] is SK-OV-3. In words: Inhibitory activity against SKOV3 (human ovarian carcinoma) cell line with Escherichia coli nitroreductase combination after 18 hours drug exposure. The format is functional, cell-based. The note with it: SK-OV-3, 18 h.
Data set [2] is described as follows: Ratio of Kcat to that of Km was determined. The format is ADME.
The nature of data set [3]: Inhibitory activity against V79 (chinese hamster fibroblast) cell line without Escherichia coli nitroreductase combination after 1 hour drug exposure. The format is functional, cell-based, Cricetulus griseus.
Data set [4] relates to SK-OV-3. In words: Inhibitory activity against SKOV3 (human ovarian carcinoma) cell line without Escherichia coli nitroreductase combination after 18 hours drug exposure. The format is functional, cell-based.
Data set [5] in a line: Inhibitory activity against V79 (chinese hamster fibroblast) cell line with Escherichia coli nitroreductase combination after 1 hour drug exposure. The data set is classed as functional, cell-based, Cricetulus griseus.
Data set [6] in a line: Kcat was determined. The format is ADME.
Data set [7] has as its system SK-OV-3. In words: Inhibitory activity against SKOV3 (human ovarian carcinoma) cell line infected at lower infection rate of 10 pfu/cell with Escherichia coli nitroreductase combination after 18 hours drug exposure. The format is functional, cell-based. The note with it: SK-OV-3, 18 h.
Data set [8] can be described thus: Inhibitory activity against V79 (chinese hamster fibroblast) cell line without Escherichia coli nitroreductase combination after 72 hours drug exposure. The format is functional, cell-based, Cricetulus griseus.
Data set [9] can be described thus: Ratio of the activity in absence to that of presence of Escherichia coli nitroreductase in SKOV3 (human ovarian carcinoma) cell line. The data set is classed as functional.
Data set [10] is described as follows: Inhibitory activity against V79 (chinese hamster fibroblast) cell line with Escherichia coli nitroreductase combination after 72 hours drug exposure. The data set is classed as functional, cell-based, Cricetulus griseus.
Data set [11] is described as follows: Ratio of the activity in absence to that of presence of the Escherichia coli nitroreductase in SKOV3 (human ovarian carcinoma) cell line infected at lower infection rate of 10 pfu/cell. The data set is classed as functional.
Data set [12] can be described thus: Ratio of the activity in absence to that of presence of Escherichia coli nitroreductase V79 (chinese hamster fibroblast) cell line. The data set is classed as functional.

The results in this text go back to ChEMBL document CHEMBL1136805, “Nitroaryl phosphoramides as novel prodrugs for E. coli nitroreductase activation in enzyme prodrug therapy” (J Med Chem, 2003).

Turning to `NP(=O)(OCc1ccc([N+](=O)[O-])cc1)N(CCCl)CCCl` (stereo not drawn), the IC50 (commonly the concentration needed to halve the response being measured) in the data set with SK-OV-3 [1] was 1.2 µM; in [3] it was above 100 µM; with SK-OV-3 [4] (Homo sapiens, SK-OV-3, 18 h) it was above 10000 µM; in [5], 0.01 µM; in the data set with SK-OV-3 [7], 6.2 µM; in data set [8], 67 µM. In data set [10], the IC50 is 0.0004 µM. The “k cat/Km” value in [2] turned out to be 71949 M⁻¹ s⁻¹. In data set [6], this compound displayed a k cat of 14 s⁻¹. Moreover, the results for the Ratio in [9] and in data set [11] were above 833 and above 161, respectively.
For `O=[N+]([O-])c1ccc2c(c1)NP(=O)(N(CCCl)CCCl)OC2` (stereo not drawn), the IC50 is 55 µM in the data set with SK-OV-3 [1]; 550 µM in the data set on SK-OV-3 [4] (Homo sapiens, SK-OV-3, 18 h); above 100 µM in data set [8]; 3 µM in data set [10]. For the same compound, the Ratio in data set [9] was 10; in [12] it was above 33.
As for `O=[N+]([O-])c1cccc([C@@H]2CCNP(=O)(N(CCCl)CCCl)O2)c1` (stereo partly drawn), the IC50 in the data set on SK-OV-3 [1] was 5 µM; in data set [3], above 100 µM; in the data set with SK-OV-3 [4] (Homo sapiens, SK-OV-3, 18 h), above 1000 µM; in [5], 0.17 µM; in data set [8] it was 608 µM; in [10], 0.027 µM. The Ratio in [9] is above 200.
On to `O=[N+]([O-])c1cccc([C@H]2CCNP(=O)(N(CCCl)CCCl)O2)c1` (stereo partly drawn), for which the half-inhibitory concentration (IC50) in the data set with SK-OV-3 [1] is 4.7 µM; in data set [3], above 100 µM; in the data set on SK-OV-3 [4] (Homo sapiens, SK-OV-3, 18 h), 680 µM; in [5], 0.34 µM; in [8] it was 832 µM; in [10] it was 0.029 µM. Also, the Ratio in data set [9] is 145.
Consider `NC(=O)c1cc(N2CC2)c([N+](=O)[O-])cc1[N+](=O)[O-]` [TRETAZICAR], for which the IC50 with SK-OV-3 [1] is 4.7 µM; in data set [3], above 100 µM; in the data set with SK-OV-3 [4] (Homo sapiens, SK-OV-3, 18 h), above 1000 µM; in the data set on SK-OV-3 [4] (sk-ov-3) it was 625 µM; in data set [5] it was 0.31 µM; in the data set with SK-OV-3 [7], 52 µM. For the same compound, the IC50 in data set [8] is 254 µM; in [10], 0.036 µM. The 1/2Kcat/Km in [2] came out at 3746 M⁻¹ s⁻¹. The compound also displayed a k cat in data set [6] of 6.6 s⁻¹. Further, the Ratio in data set [9] was above 213; in data set [11], 12.
